Our source for the TGI values is PubChem BioAssay (NCI).

Each structure is given as a SMILES string.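 These data come from cells grown in 96-well plates and exposed to compound for 48 hours at five concentrations. Definition used: TGI = concentration required for complete inhibition of growth.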

Among the test systems are OVCAR-3 ovarian; SF-268 CNS; MDA-MB-435; MOLT-4 leukemia; MALME-3M melanoma; SW-620 colon; OVCAR-5 ovarian; KM12 colon; NCI-H460 lung; HL-60(TB) leukemia; NCI/ADR-RES ovarian; SN12C renal; SK-OV-3 ovarian; HS 578T breast; RXF 393 renal; ACHN renal; 786-0 renal; NCI-H522 lung; NCI-H226 lung.
Common to all, as to assay: growth of human tumour cells (NCI), 48 h

Regarding `Cc1ccc(O)c(C2=CC3=NNC(=O)C3C(c3cccc(Cl)c3)C2)c1` (stereo not drawn), the TGI with OVCAR-3 ovarian was 84.1 µM; in the assay with SF-268 CNS, over 100 µM; with MDA-MB-435 it was over 100 µM; with MOLT-4 leukemia it was over 100 µM; in the assay with MALME-3M melanoma, 94 µM; in the assay on SW-620 colon, over 100 µM. Moreover, the TGI in the assay with OVCAR-5 ovarian is over 100 µM; in the assay with KM12 colon, 55.1 µM; in the assay with NCI-H460 lung, over 100 µM; in the assay on HL-60(TB) leukemia it was over 100 µM; in the assay with NCI/ADR-RES ovarian, over 100 µM; in the assay on SN12C renal it was over 100 µM. Further, the TGI in the assay with SK-OV-3 ovarian is over 100 µM; in the assay with HS 578T breast, over 100 µM; in the assay on RXF 393 renal it was 9.62 µM; with ACHN renal it was over 100 µM; in the assay on 786-0 renal it was over 100 µM.

For the compound `Oc1ccc(/C=C/c2cccc(/C=C/c3ccc(O)c(O)c3)n2)cc1O`, the TGI with OVCAR-3 ovarian was over 100 µM; in the assay on SF-268 CNS, 23.3 µM; in the assay on MDA-MB-435, 28 µM; in the assay with MOLT-4 leukemia, 17.8 µM; in the assay with SW-620 colon it was over 100 µM; with OVCAR-5 ovarian, 23.6 µM. Also, the TGI with KM12 colon was 36.2 µM; in the assay with NCI-H460 lung, 38.1 µM; in the assay on HL-60(TB) leukemia, 13.4 µM; in the assay with NCI/ADR-RES ovarian it was 26.7 µM; in the assay on SN12C renal it was 27.5 µM; with SK-OV-3 ovarian it was 34 µM. Moreover, the TGI in the assay with HS 578T breast is over 100 µM; in the assay with ACHN renal, 18.7 µM; with 786-0 renal, 24.7 µM.

Consider `O=C(Nc1cccc(F)c1)c1cc2ccc(O)cc2oc1=Nc1cccc(F)c1`, for which the TGI in the assay with OVCAR-3 ovarian was over 100 µM; with SF-268 CNS, over 100 µM; in the assay with MDA-MB-435 it was over 100 µM; in the assay on MOLT-4 leukemia it was 32.4 µM; with MALME-3M melanoma it was 84 µM; in the assay on SW-620 colon it was over 100 µM. Moreover, the TGI is over 100 µM in the assay with OVCAR-5 ovarian; over 100 µM in the assay with KM12 colon; 13 µM with NCI-H522 lung; over 100 µM in the assay on NCI-H460 lung; 10.1 µM in the assay with HL-60(TB) leukemia; 74.5 µM in the assay with NCI/ADR-RES ovarian. Moreover, the TGI in the assay with SN12C renal is over 100 µM; in the assay on SK-OV-3 ovarian it was over 100 µM; in the assay on HS 578T breast, 50.8 µM; in the assay on ACHN renal it was over 100 µM; in the assay on 786-0 renal it was over 100 µM.

In the case of `N#Cc1c(=O)c2ccccc2n2ccccc12`, the TGI in the assay with SF-268 CNS, in the assay on MDA-MB-435, with MALME-3M melanoma, in the assay on SW-620 colon, in the assay on KM12 colon and in the assay on NCI-H226 lung was over 100 µM each time. For the same compound, the TGI in the assay on NCI-H522 lung, with NCI-H460 lung, with HL-60(TB) leukemia, in the assay on NCI/ADR-RES ovarian, in the assay with SN12C renal and in the assay with HS 578T breast was over 100 µM throughout. In addition, the TGI in the assay with ACHN renal and with 786-0 renal was over 100 µM in each case.

For the compound `N#Cc1c2ccc([N+](=O)[O-])cc2c(=O)n2c1[nH]c1ccc(C(F)(F)F)cc12`, the TGI in the assay with OVCAR-3 ovarian was 83.4 µM; with SF-268 CNS it was over 100 µM; in the assay on MDA-MB-435, over 100 µM; in the assay with MOLT-4 leukemia it was over 100 µM; in the assay on MALME-3M melanoma it was over 100 µM; in the assay on SW-620 colon, over 100 µM. Also, the TGI in the assay on OVCAR-5 ovarian is over 100 µM; in the assay with KM12 colon it was over 100 µM; in the assay with NCI-H226 lung, over 88.3 µM; with NCI-H522 lung, 38.7 µM; with NCI-H460 lung it was over 100 µM; with HL-60(TB) leukemia, over 100 µM. In addition, the TGI with NCI/ADR-RES ovarian, in the assay with SN12C renal, in the assay with SK-OV-3 ovarian, in the assay on HS 578T breast, in the assay with ACHN renal and in the assay on 786-0 renal was over 100 µM throughout.

Regarding `N#CCCN(CCC#N)c1ccc(/C=C2\N=C(c3ccccc3)N(c3ccc(C(=O)O)cc3)C2=O)cc1`, the TGI in the assay with OVCAR-3 ovarian was over 100 µM; in the assay on SF-268 CNS, 61.6 µM; with MDA-MB-435 it was over 100 µM; in the assay on SW-620 colon it was 48.3 µM; in the assay on OVCAR-5 ovarian, over 100 µM; in the assay with KM12 colon, 31 µM. The TGI with NCI-H226 lung is 95.5 µM; in the assay with NCI-H460 lung, over 100 µM; in the assay on NCI/ADR-RES ovarian, over 100 µM; in the assay on SN12C renal, over 100 µM; in the assay with SK-OV-3 ovarian, over 100 µM; with HS 578T breast, 58.5 µM. In addition, the TGI in the assay on RXF 393 renal, with ACHN renal and with 786-0 renal was over 100 µM each time.

For the compound `Cc1ccc(S(=O)(=O)CNC(=O)C(O)(O)C(F)(F)F)cc1`, the TGI with OVCAR-3 ovarian, in the assay on SF-268 CNS, in the assay on MDA-MB-435, in the assay with MOLT-4 leukemia, in the assay with MALME-3M melanoma and in the assay with SW-620 colon was over 100 µM in each case. The TGI in the assay on OVCAR-5 ovarian, in the assay on KM12 colon, with NCI-H522 lung, in the assay with NCI-H460 lung, in the assay with HL-60(TB) leukemia and in the assay with NCI/ADR-RES ovarian was over 100 µM in each case. Besides, the TGI with SN12C renal, in the assay with SK-OV-3 ovarian, in the assay with HS 578T breast, with RXF 393 renal and in the assay on 786-0 renal was over 100 µM in each case.

For `CN=C(Nc1ccc(OC)c2ccccc12)SC`, the TGI in the assay on OVCAR-3 ovarian, in the assay on SF-268 CNS, in the assay on MDA-MB-435, in the assay on MOLT-4 leukemia, in the assay on MALME-3M melanoma and with SW-620 colon was over 10 µM each time. Further, the TGI in the assay on OVCAR-5 ovarian, in the assay on KM12 colon, with NCI-H522 lung, in the assay with HL-60(TB) leukemia, in the assay on NCI/ADR-RES ovarian and with SN12C renal was over 10 µM throughout. Besides, the TGI in the assay with SK-OV-3 ovarian, with HS 578T breast, in the assay on ACHN renal and in the assay with 786-0 renal was over 10 µM each time.

In the case of `COc1ccc(-c2c(-c3ccccc3)c(C)c3ccccn23)cc1`, the TGI in the assay on OVCAR-3 ovarian, with MDA-MB-435, in the assay on MOLT-4 leukemia, in the assay on MALME-3M melanoma, in the assay on SW-620 colon and in the assay on OVCAR-5 ovarian was over 100 µM in each case. In addition, the TGI in the assay with KM12 colon, in the assay on NCI-H226 lung, with NCI-H522 lung, in the assay on NCI-H460 lung, in the assay on HL-60(TB) leukemia and in the assay on NCI/ADR-RES ovarian was over 100 µM in each case. The TGI with SN12C renal, in the assay on SK-OV-3 ovarian, in the assay with HS 578T breast, with ACHN renal and in the assay with 786-0 renal was over 100 µM each time.

For the compound `CC(=O)C(C)C(=O)N1C(=O)N(C)C2(C)N(C)C(=O)NC12C` (stereo not drawn), the TGI in the assay with OVCAR-3 ovarian, in the assay on SF-268 CNS, in the assay on MDA-MB-435, with MALME-3M melanoma, with OVCAR-5 ovarian and with KM12 colon was over 100 µM each time. In addition, the TGI in the assay on NCI-H522 lung, in the assay with NCI-H460 lung, with HL-60(TB) leukemia, with NCI/ADR-RES ovarian, in the assay on SN12C renal and in the assay on SK-OV-3 ovarian was over 100 µM each time. Besides, the TGI in the assay with HS 578T breast, with ACHN renal and in the assay on 786-0 renal was over 100 µM each time.

On to `CC(=O)NC1(NC(C)=O)C2CC(C1Cc1ccccc1)C(C)(C)C2C` (stereo not drawn), for which the TGI with OVCAR-3 ovarian, in the assay on SF-268 CNS, with MDA-MB-435, in the assay on MOLT-4 leukemia, in the assay on MALME-3M melanoma and in the assay with SW-620 colon was over 100 µM each time. The TGI in the assay with OVCAR-5 ovarian, with KM12 colon, in the assay with NCI-H226 lung, in the assay with NCI-H522 lung, in the assay with NCI-H460 lung and with HL-60(TB) leukemia was over 100 µM in each case. The TGI in the assay with SN12C renal, with SK-OV-3 ovarian, with HS 578T breast, in the assay with RXF 393 renal, in the assay on ACHN renal and in the assay with 786-0 renal was over 100 µM in each case.

On to `CC(C)(C)OC(=O)N1NC(c2ccccc2)CC1c1ccccc1` (stereo not drawn), for which the TGI in the assay on OVCAR-3 ovarian is over 100 µM; in the assay with SF-268 CNS, over 100 µM; in the assay with MDA-MB-435 it was 65.3 µM; with MOLT-4 leukemia, over 100 µM; in the assay with SW-620 colon, over 100 µM; in the assay with OVCAR-5 ovarian, over 100 µM. The TGI in the assay with KM12 colon was 41.9 µM; with NCI-H226 lung it was 88.2 µM; with NCI-H522 lung, over 100 µM; in the assay on NCI-H460 lung, over 100 µM; in the assay on NCI/ADR-RES ovarian, 47.9 µM; in the assay on SN12C renal, over 100 µM. Further, the TGI in the assay with SK-OV-3 ovarian was over 100 µM; in the assay with HS 578T breast it was over 100 µM; with RXF 393 renal it was 58.4 µM; in the assay with ACHN renal, 68.6 µM; with 786-0 renal it was over 100 µM.

On to `O=c1[nH]nc(Cc2ccccc2)n1/N=C/c1ccco1`, for which the TGI in the assay with OVCAR-3 ovarian, in the assay with SF-268 CNS, with MDA-MB-435, in the assay with MOLT-4 leukemia, in the assay on MALME-3M melanoma and in the assay on SW-620 colon was over 100 µM each time. Also, the TGI in the assay with OVCAR-5 ovarian, with KM12 colon, in the assay with NCI-H226 lung, in the assay with NCI-H460 lung, in the assay with NCI/ADR-RES ovarian and in the assay on SN12C renal was over 100 µM throughout. Besides, the TGI in the assay on SK-OV-3 ovarian, with HS 578T breast, in the assay on RXF 393 renal, with ACHN renal and in the assay with 786-0 renal was over 100 µM throughout.
